In patent US8961986B2, “Peptide composition” (Apitope Technology (Bristol) Limited, priority 2000, dated 2015):

Test system: 81-111-responsive T-cell line and sub-lines
Assay: Reactivity of T cell lines and clones from peptide-primed mice to MBP 81-111 region peptides
Format: cell-based
Conditions: six clones generated
Protocol: In order to investigate T cell reactivity to the 81-111 region of MBP, lymph node cells from mice primed with 81-111 are stimulated with 81-111 in vitro and these cells are tested with a panel of overlapping 10-mer peptides with two residue shifts covering the 81-111 region (namely: 81-90, 83-92, 85-94, 87-96, 89-98, 91-100, 93-102, 95-104, 97-106, 99-108 and 101-111). The response pattern to peptides covering the 89-101 show stimulatory capacity for 5 adjacent peptides (N terminal 87-96 through to 95-104) reflecting the presence of at least two (and perhaps three) distinct epitopes.
In order to investigate this region further, three sub-lines are generated from the original 81-111-responsive T-cell line and these are retested with a panel of overlapping 10-mer peptides with one residue shift covering the 84-106 region. The results reveal the existence of three distinct but overlapping T cell epitopes within the 89-101 sequence: 89-94, 92-98 and 95-101 (see FIG. 14).

MBP 92-98: cryptic T cell epitope within MBP 89-101 (IRLFSRD; UniProt P02686 92-98, looked up, fragment)
T cell clones from mice primed with the 89-101 peptide responding: all six clones
